{
  "source": "patent US7271164B2",
  "about": "“Cyclohepta[b][1,4]diazepino[6,7,1,-hi]indoles and derivatives” (Wyeth, priority 2000, dated 2007)",
  "key": {"human 5-HT2C receptor": {"molecular_target": "T1, human 5-HT2C receptor (Homo sapiens, UniProt P28335)", "T1 construct": "expressed in transfected cells; host or cells: CHO cells", "T1 sequence (P28335 33-458)": "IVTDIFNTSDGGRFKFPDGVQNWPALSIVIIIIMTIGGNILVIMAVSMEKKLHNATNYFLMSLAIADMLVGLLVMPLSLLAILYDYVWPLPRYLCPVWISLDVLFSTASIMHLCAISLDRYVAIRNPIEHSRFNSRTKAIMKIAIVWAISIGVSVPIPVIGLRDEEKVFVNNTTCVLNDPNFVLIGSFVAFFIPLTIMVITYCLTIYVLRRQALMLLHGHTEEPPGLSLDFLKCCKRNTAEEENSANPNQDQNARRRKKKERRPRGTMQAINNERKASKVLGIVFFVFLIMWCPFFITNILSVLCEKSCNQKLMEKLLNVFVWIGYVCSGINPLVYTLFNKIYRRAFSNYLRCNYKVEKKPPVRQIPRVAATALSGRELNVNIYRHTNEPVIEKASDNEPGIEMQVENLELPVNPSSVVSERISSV", "test": "Stimulation of [3H] Inositol Monophosphate Production by 5-HT2C Agonists (transfected CHO cells)", "type": "cell-based", "description": "One (1) ml of maintenance medium containing 1 μCi/ml myo-[^3H] inositol was added to each well. After 48 hours labeling, the cells were washed once with 0.5 ml DMEM containing 25 mM HEPES and 10 mM LiCl, then preincubated with the medium for 30 min (antagonists were included in this period if tested). At the end of the preincubation, the medium was removed, the cells were then incubated with test compounds (in presence of antagonists if needed) for 30 min. The reaction was terminated by removal of the incubation solution and addition of 0.5 ml ice-cold 5% PCA, followed by 15 to 30 min incubation on ice. 200 μl of 0.5 M Tes/1.5 M K2CO3 was added to each well to neutralize to pH 7, and plates were left on ice for another 15 to 30 min to precipitate all salts. The liquid and solid phases were separated by centrifugation.\nA portion (350 μl) of the upper aqueous phase was applied to Dowex AG-1X8 (formate form, 100-200 mesh) columns. The columns were then washed stepwise with 10 ml of water and 10 ml of 25 mM ammonium formate to remove free myo-[^3H]inositol and deacylated phosphoinositol, respectively. Finally 10 ml of 0.2 M ammonium formate solution was applied to the columns to elute [^3H] inositol monophosphate ([^3H] IP1) directly into scintillation vials. Of this eluate, 1 ml was used to determine radioactivity by scintillation counting. […]"}, "[1]": {"molecular_target": "T2, human 5-hydroxytryptamine2C (h5HT2C) receptor (Homo sapiens, UniProt P28335)", "T2 construct": "expressed in transfected cells; host or cells: CHO (Chinese Hamster Ovary) cells; membrane preparation", "T2 sequence (P28335 33-458)": "T1 sequence (P28335 33-458)", "test": "5HT2C Receptor Binding Test Procedure ([125I] DOI displacement, CHO cell membranes)"}},
  "note": "Counter-ions that a name gives are not always drawn.",
  "data": [
    {"compound": "c1cc2c3c(c1)c1c(n3CCNC2)CCCCC1", "note": "(as salt: hydrochloride) [Example 1, 1,2,3,4,9,10,11,12-Octahydro-8H-cyclohepta[b][1,4]diazepino[6,7,1-hi]indole]", "values": [
      {"measurement": "melting point", "result": "303 to 306", "unit": "°C"}
    ]},
    {"compound": "c1cc2c3c(c1)C1CCCCCC1N3CCNC2", "note": "(stereo not drawn) (as salt: hydrochloride) [Example 2, 1,2,3,4,8,9,10,11,12,12a-Decahydro-7bH-cyclohepta[b][1,4]diazepino[6,7,1-hi]indole]", "values": [
      {"measurement": "melting point", "result": "258 to 263", "unit": "°C"}
    ]},
    {"compound": "c1cc2c3c(c1)c1c(n3CCNC2)CCCCC1", "note": "[Example 1, 1,2,3,4,9,10,11,12-Octahydro-8H-cyclohepta[b][1,4]diazepino[6,7,1-hi]indole]", "values": [
      {"measurement": "Emax", "setting": "human 5-HT2C receptor; CHO, read-out: 5HT2C % Emax (5HT, 100%)", "result": 73, "unit": "%"},
      {"measurement": "EC50", "setting": "human 5-HT2C receptor; read-out: Stimulation of IP3 (EC50)", "result": 500, "unit": "nM"}
    ]},
    {"compound": "CSc1ccc2c(c1)C(N1CCN(C)CC1)Cc1ccccc1S2", "note": "(stereo not drawn) [Methiothepin]", "values": [
      {"measurement": "Ki", "setting": "[1]; reference compounds, [125I] DOI binding, h5HT2C in CHO membranes, read-out: Ki value and 95% confidence interval", "result": 4.6, "unit": "nM"}
    ]},
    {"compound": "COc1cc(CC(C)N)c(OC)cc1I", "note": "(stereo not drawn) [[^125I] DOI]", "values": [
      {"measurement": "Kd", "setting": "[1]; read-out: dissociation constant, KD of [125I] DOI at the human serotonin 5HT2C receptor, saturation binding with increasing concentrations of [125I] DOI", "result": 0.4, "unit": "nM"}
    ]}
  ]
}
